Common to all, as to assay: Glasshouse assay for herbicidal activity (pre- and post-emergence), percentage phytotoxicity
Holding throughout (format): in vivo

Assay [1] has as its system Alopecurus myosuroides (ALOMY). Conditions: Alopecurus myosuroides. The gist of the method:
(§1)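 Pot-grown plants treated one day after sowing (pre-emergence) or at about 12 days (post-emergence); glasshouse at 24/18° C (warm) or 20/16° C (cool species) day/night, 16 h light, 65% humidity. Visual % phytotoxicity (0 = none, 100 = total damage) scored at 15 DAA post or 20 DAA pre.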

Another assay relates to Avena fatua (AVEFA). Conditions: Avena fatua. The gist of the method: as §1
The test system of assay [2] is Echinochloa crus-galli (ECHCG). Conditions: Echinochloa crus-galli. The gist of the method:
as §1

The test system of another assay is Lolium perenne (LOLPE). Conditions: Lolium perenne. An outline of the steps:
as §1

The mark [3] stands for this setting: post-emergence, 360 h, Rate 250 g/ha, post-emergence, assessed visually 15 DAA, 100%=total damage, 0%=no damage, read-out: Post-emergence herbicidal activity (percentage phytotoxicity) ALOMY POST.
Where [4] appears, read: pre-emergence, 480 h, Rate 250 g/ha, pre-emergence, assessed visually 20 DAA, 100%=total damage, 0%=no damage, read-out: Pre-emergence herbicidal activity (percentage phytotoxicity) ALOMY PRE.
The mark [5] stands for this setting: post-emergence, 360 h, Rate 250 g/ha, post-emergence, assessed visually 15 DAA, 100%=total damage, 0%=no damage, read-out: Post-emergence herbicidal activity (percentage phytotoxicity) AVEFA POST.
Where [6] appears, read: pre-emergence, 480 h, Rate 250 g/ha, pre-emergence, assessed visually 20 DAA, 100%=total damage, 0%=no damage, read-out: Pre-emergence herbicidal activity (percentage phytotoxicity) AVEFA PRE.
Setting [7] is: post-emergence, 360 h, Rate 250 g/ha, post-emergence, assessed visually 15 DAA, 100%=total damage, 0%=no damage, read-out: Post-emergence herbicidal activity (percentage phytotoxicity) ECHCG POST.
[8] abbreviates: pre-emergence, 480 h, Rate 250 g/ha, pre-emergence, assessed visually 20 DAA, 100%=total damage, 0%=no damage, read-out: Pre-emergence herbicidal activity (percentage phytotoxicity) ECHCG PRE.
Where [9] appears, read: post-emergence, 360 h, Rate 250 g/ha, post-emergence, assessed visually 15 DAA, 100%=total damage, 0%=no damage, read-out: Post-emergence herbicidal activity (percentage phytotoxicity) LOLPE POST.
[10] abbreviates: pre-emergence, 480 h, Rate 250 g/ha, pre-emergence, assessed visually 20 DAA, 100%=total damage, 0%=no damage, read-out: Pre-emergence herbicidal activity (percentage phytotoxicity) LOLPE PRE.
Setting [11] is: post-emergence, 360 h, 250 g/ha, post-emergence, 15 DAA, visual assessment (100%=total damage, 0%=no damage), read-out: Post-emergence herbicidal activity (percentage phytotoxicity) ALOMY POST.
Setting [12] is: pre-emergence, 480 h, 250 g/ha, pre-emergence, 20 DAA, visual assessment (100%=total damage, 0%=no damage), read-out: Pre-emergence herbicidal activity (percentage phytotoxicity) ALOMY PRE.
Where [13] appears, read: post-emergence, 360 h, 250 g/ha, post-emergence, 15 DAA, visual assessment (100%=total damage, 0%=no damage), read-out: Post-emergence herbicidal activity (percentage phytotoxicity) AVEFA POST.
[14] abbreviates: pre-emergence, 480 h, 250 g/ha, pre-emergence, 20 DAA, visual assessment (100%=total damage, 0%=no damage), read-out: Pre-emergence herbicidal activity (percentage phytotoxicity) AVEFA PRE.
Where [15] appears, read: post-emergence, 360 h, 250 g/ha, post-emergence, 15 DAA, visual assessment (100%=total damage, 0%=no damage), read-out: Post-emergence herbicidal activity (percentage phytotoxicity) ECHCG POST.
[16] abbreviates: pre-emergence, 480 h, 250 g/ha, pre-emergence, 20 DAA, visual assessment (100%=total damage, 0%=no damage), read-out: Pre-emergence herbicidal activity (percentage phytotoxicity) ECHCG PRE.
[17] abbreviates: post-emergence, 360 h, 250 g/ha, post-emergence, 15 DAA, visual assessment (100%=total damage, 0%=no damage), read-out: Post-emergence herbicidal activity (percentage phytotoxicity) LOLPE POST.
Setting [18] is: pre-emergence, 480 h, 250 g/ha, pre-emergence, 20 DAA, visual assessment (100%=total damage, 0%=no damage), read-out: Pre-emergence herbicidal activity (percentage phytotoxicity) LOLPE PRE.
Where [19] appears, read: post-emergence, 360 h, POST-emergence, rate 250 g/ha, visual score 15 DAA (100%=total damage, 0%=no damage), read-out: Post-emergence herbicidal activity (percentage phytotoxicity) ALOMY POST.
[20] abbreviates: pre-emergence, 480 h, PRE-emergence, rate 250 g/ha, visual score 20 DAA (100%=total damage, 0%=no damage), read-out: Pre-emergence herbicidal activity (percentage phytotoxicity) ALOMY PRE.
Where [21] appears, read: post-emergence, 360 h, POST-emergence, rate 250 g/ha, visual score 15 DAA (100%=total damage, 0%=no damage), read-out: Post-emergence herbicidal activity (percentage phytotoxicity) AVEFA POST.
The mark [22] stands for this setting: pre-emergence, 480 h, PRE-emergence, rate 250 g/ha, visual score 20 DAA (100%=total damage, 0%=no damage), read-out: Pre-emergence herbicidal activity (percentage phytotoxicity) AVEFA PRE.
Setting [23] is: post-emergence, 360 h, POST-emergence, rate 250 g/ha, visual score 15 DAA (100%=total damage, 0%=no damage), read-out: Post-emergence herbicidal activity (percentage phytotoxicity) ECHCG POST.
The mark [24] stands for this setting: pre-emergence, 480 h, PRE-emergence, rate 250 g/ha, visual score 20 DAA (100%=total damage, 0%=no damage), read-out: Pre-emergence herbicidal activity (percentage phytotoxicity) ECHCG PRE.
Where [25] appears, read: post-emergence, 360 h, POST-emergence, rate 250 g/ha, visual score 15 DAA (100%=total damage, 0%=no damage), read-out: Post-emergence herbicidal activity (percentage phytotoxicity) LOLPE POST.
Where [26] appears, read: pre-emergence, 480 h, PRE-emergence, rate 250 g/ha, visual score 20 DAA (100%=total damage, 0%=no damage), read-out: Pre-emergence herbicidal activity (percentage phytotoxicity) LOLPE PRE.

Structures are written as SMILES. Where two headings read alike, the source gives them in different places.

In the case of `Cc1cc(-c2ncc(Cl)cc2F)cc(C)c1C1C(=O)CC(CC(=O)NC2CC2)C1=O` (stereo not shown) [Compound A45], the pest or weed control at 250 g/ha (in assay [1] (setting [3]); in assay [1] (setting [4]); in the assay on Avena fatua (AVEFA) (setting [5]); in the assay with Avena fatua (AVEFA) (setting [6]); in assay [2] (setting [7]); in assay [2] (setting [8])) was 100% in each case. Also, the pest or weed control at 250 g/ha in the assay on Lolium perenne (LOLPE) (setting [9]) and in the assay on Lolium perenne (LOLPE) (setting [10]) was 100% each time.
In the case of `Cc1cc(-c2ncc(F)cc2C#N)cc(C)c1C1C(=O)CC(CC(=O)NC(C)(C)C)C1=O` (stereo not shown) [Compound B87], the pest or weed control at 250 g/ha in assay [1] (setting [11]) worked out at 70%; in assay [1] (setting [12]) it was 40%; in the assay on Avena fatua (AVEFA) (setting [13]), 30%; in the assay with Avena fatua (AVEFA) (setting [14]) it was 10%; in assay [2] (setting [15]) it was 80%; in assay [2] (setting [16]), 20%. The results for the pest or weed control at 250 g/ha in the assay with Lolium perenne (LOLPE) (setting [17]) and in the assay with Lolium perenne (LOLPE) (setting [18]) were 80% and 70%, respectively.
Consider `Cc1cc(-n2cc(Cl)cn2)cc(C)c1C1C(=O)CC(CC(=O)NCC2CC2)C1=O` (stereo not shown) [Compound B227], for which the pest or weed control at 250 g/ha in assay [1] (setting [19]) was 100%; in assay [1] (setting [20]), 80%; in the assay on Avena fatua (AVEFA) (setting [21]), 100%; in the assay with Avena fatua (AVEFA) (setting [22]), 80%; in assay [2] (setting [23]), 100%; in assay [2] (setting [24]) it was 80%. Also, the pest or weed control at 250 g/ha in the assay with Lolium perenne (LOLPE) (setting [25]) is 90%; in the assay on Lolium perenne (LOLPE) (setting [26]) it was 80%.
On to `C#CCNC(=O)CC1CC(=O)C(c2c(C)cc(-c3ccc(F)cn3)cc2C)C1=O` (stereo not shown) [Compound B387], for which the pest or weed control at 250 g/ha in assay [1] (post-emergence, 360 h, Rate 250 g/ha, post-emergence, visual assessment 15 DAA, 100%=total damage, 0%=no damage, read-out: Post-emergence herbicidal activity (percentage phytotoxicity) ALOMY POST) is 90%; in assay [1] (pre-emergence, 480 h, Rate 250 g/ha, pre-emergence, visual assessment 20 DAA, 100%=total damage, 0%=no damage, read-out: Pre-emergence herbicidal activity (percentage phytotoxicity) ALOMY PRE), 90%; in the assay with Avena fatua (AVEFA) (post-emergence, 360 h, Rate 250 g/ha, post-emergence, visual assessment 15 DAA, 100%=total damage, 0%=no damage, read-out: Post-emergence herbicidal activity (percentage phytotoxicity) AVEFA POST), 100%; in the assay with Avena fatua (AVEFA) (pre-emergence, 480 h, Rate 250 g/ha, pre-emergence, visual assessment 20 DAA, 100%=total damage, 0%=no damage, read-out: Pre-emergence herbicidal activity (percentage phytotoxicity) AVEFA PRE), 100%; in assay [2] (post-emergence, 360 h, Rate 250 g/ha, post-emergence, visual assessment 15 DAA, 100%=total damage, 0%=no damage, read-out: Post-emergence herbicidal activity (percentage phytotoxicity) ECHCG POST) it was 90%; in assay [2] (pre-emergence, 480 h, Rate 250 g/ha, pre-emergence, visual assessment 20 DAA, 100%=total damage, 0%=no damage, read-out: Pre-emergence herbicidal activity (percentage phytotoxicity) ECHCG PRE) it was 100%. The pest or weed control at 250 g/ha was 90% in the assay with Lolium perenne (LOLPE) (post-emergence, 360 h, Rate 250 g/ha, post-emergence, visual assessment 15 DAA, 100%=total damage, 0%=no damage, read-out: Post-emergence herbicidal activity (percentage phytotoxicity) LOLPE POST) and 90% with Lolium perenne (LOLPE) (pre-emergence, 480 h, Rate 250 g/ha, pre-emergence, visual assessment 20 DAA, 100%=total damage, 0%=no damage, read-out: Pre-emergence herbicidal activity (percentage phytotoxicity) LOLPE PRE).
For `Cc1cc(C)c(C2C(=O)CC(CC(=O)NC3CCC(C)CC3C)C2=O)c(C)c1` (stereo not shown) [Compound A103], the pest or weed control at 250 g/ha in assay [1] (setting [3]) was determined as 60%; in the assay on Avena fatua (AVEFA) (setting [5]), 10%; in assay [2] (setting [7]), 20%; in the assay with Lolium perenne (LOLPE) (setting [9]) it was 20%.
As to `C/C=C/CNC(=O)CC1CC(=O)C(c2c(C)cc(C)cc2C)C1=O` (stereo not shown) [Compound B47], the pest or weed control at 250 g/ha came to 90% in assay [1] (setting [11]); 90% in assay [1] (setting [12]); 80% in the assay with Avena fatua (AVEFA) (setting [13]); 60% in the assay with Avena fatua (AVEFA) (setting [14]); 90% in assay [2] (setting [15]); 90% in assay [2] (setting [16]). The figures for the pest or weed control at 250 g/ha in the assay on Lolium perenne (LOLPE) (setting [17]) and with Lolium perenne (LOLPE) (setting [18]) were 90% and 100%, respectively.
Turning to `Cc1cc(-c2ccc(Cl)nn2)cc(C)c1C1C(=O)CC(CC(=O)NCc2ncccc2Cl)C1=O` (stereo not shown) [Compound A155], the pest or weed control at 250 g/ha in assay [1] (setting [3]) worked out at 50%; in assay [1] (setting [4]) it was 40%; in the assay with Avena fatua (AVEFA) (setting [5]), 70%; in the assay with Avena fatua (AVEFA) (setting [6]), 100%; in assay [2] (setting [7]) it was 90%; in assay [2] (setting [8]), 70%. For the same compound, the pest or weed control at 250 g/ha in the assay on Lolium perenne (LOLPE) (setting [9]) and in the assay on Lolium perenne (LOLPE) (setting [10]) was 70% each time.
Turning to `Cc1cc(Br)cc(C)c1C1C(=O)CC(CC(=O)NCC2CC2C(F)F)C1=O` (stereo not shown) [Compound B142], the pest or weed control at 250 g/ha in assay [1] (setting [11]) was found to be 90%; in assay [1] (setting [12]), 90%; in the assay on Avena fatua (AVEFA) (setting [13]), 90%; with Avena fatua (AVEFA) (setting [14]), 70%; in assay [2] (setting [15]), 80%; in assay [2] (setting [16]), 0%. For the same compound, the pest or weed control at 250 g/ha in the assay with Lolium perenne (LOLPE) (setting [17]) stood at 90%; with Lolium perenne (LOLPE) (setting [18]), 70%.
Consider `CCc1cc(-n2cc(Cl)cn2)cc(C)c1C1C(=O)CC(CC(=O)N(C)C(C)(C)C)C1=O` (stereo not shown) [Compound B239], for which the pest or weed control at 250 g/ha was found to be 90% in assay [1] (setting [19]); 100% in assay [1] (setting [20]); 100% with Avena fatua (AVEFA) (setting [21]); 90% with Avena fatua (AVEFA) (setting [22]); 100% in assay [2] (setting [23]); 100% in assay [2] (setting [24]). Further, the pest or weed control at 250 g/ha with Lolium perenne (LOLPE) (setting [25]) and in the assay with Lolium perenne (LOLPE) (setting [26]) was 100% in each case.
Consider `Cc1cc(-n2ncc(Cl)c2C)cc(C)c1C1C(=O)CC(CC(=O)NC(C)(C)C)C1=O` (stereo not shown) [Compound B104], for which the pest or weed control at 250 g/ha in assay [1] (setting [11]) is 80%; in assay [1] (setting [12]), 40%; in the assay with Avena fatua (AVEFA) (setting [13]), 80%; with Avena fatua (AVEFA) (setting [14]), 10%; in assay [2] (setting [15]) it was 70%; in assay [2] (setting [16]), 20%. Besides, the pest or weed control at 250 g/ha with Lolium perenne (LOLPE) (setting [17]) was 70%; with Lolium perenne (LOLPE) (setting [18]), 10%.

The values above are taken from US10206394B2, “Herbicidal compounds” (Syngenta Participations AG, priority 2014, dated 2019).
